The values that follow come from publication PMC7364574 (ACS Omega, 2020).

The target in one experiment is c-Met kinase (Homo sapiens, UniProt P08581). Put plainly: c-Met tyrosine kinase mobility shift assay. Format: biochemical. The following applies: IC50 (μM) c-Met.
Experiment [1] relates to A549 cells. Put plainly: Cell cycle distribution analysis by flow cytometry. The following applies: 24 h, control 56.06%. Format: cell-based.
In experiment [2] the test system is A549 cells. The experiment in a line: Acridine orange. Format: cell-based. As to conditions: A549, 0.50 μM, 8 h.
For experiment [3], the system named is A549 cells. Put plainly: Apoptosis analysis by flow cytometry. As to conditions: 24 h, control 5.16%. The format is cell-based.

c-Met kinase, sequence (P08581 25-1390): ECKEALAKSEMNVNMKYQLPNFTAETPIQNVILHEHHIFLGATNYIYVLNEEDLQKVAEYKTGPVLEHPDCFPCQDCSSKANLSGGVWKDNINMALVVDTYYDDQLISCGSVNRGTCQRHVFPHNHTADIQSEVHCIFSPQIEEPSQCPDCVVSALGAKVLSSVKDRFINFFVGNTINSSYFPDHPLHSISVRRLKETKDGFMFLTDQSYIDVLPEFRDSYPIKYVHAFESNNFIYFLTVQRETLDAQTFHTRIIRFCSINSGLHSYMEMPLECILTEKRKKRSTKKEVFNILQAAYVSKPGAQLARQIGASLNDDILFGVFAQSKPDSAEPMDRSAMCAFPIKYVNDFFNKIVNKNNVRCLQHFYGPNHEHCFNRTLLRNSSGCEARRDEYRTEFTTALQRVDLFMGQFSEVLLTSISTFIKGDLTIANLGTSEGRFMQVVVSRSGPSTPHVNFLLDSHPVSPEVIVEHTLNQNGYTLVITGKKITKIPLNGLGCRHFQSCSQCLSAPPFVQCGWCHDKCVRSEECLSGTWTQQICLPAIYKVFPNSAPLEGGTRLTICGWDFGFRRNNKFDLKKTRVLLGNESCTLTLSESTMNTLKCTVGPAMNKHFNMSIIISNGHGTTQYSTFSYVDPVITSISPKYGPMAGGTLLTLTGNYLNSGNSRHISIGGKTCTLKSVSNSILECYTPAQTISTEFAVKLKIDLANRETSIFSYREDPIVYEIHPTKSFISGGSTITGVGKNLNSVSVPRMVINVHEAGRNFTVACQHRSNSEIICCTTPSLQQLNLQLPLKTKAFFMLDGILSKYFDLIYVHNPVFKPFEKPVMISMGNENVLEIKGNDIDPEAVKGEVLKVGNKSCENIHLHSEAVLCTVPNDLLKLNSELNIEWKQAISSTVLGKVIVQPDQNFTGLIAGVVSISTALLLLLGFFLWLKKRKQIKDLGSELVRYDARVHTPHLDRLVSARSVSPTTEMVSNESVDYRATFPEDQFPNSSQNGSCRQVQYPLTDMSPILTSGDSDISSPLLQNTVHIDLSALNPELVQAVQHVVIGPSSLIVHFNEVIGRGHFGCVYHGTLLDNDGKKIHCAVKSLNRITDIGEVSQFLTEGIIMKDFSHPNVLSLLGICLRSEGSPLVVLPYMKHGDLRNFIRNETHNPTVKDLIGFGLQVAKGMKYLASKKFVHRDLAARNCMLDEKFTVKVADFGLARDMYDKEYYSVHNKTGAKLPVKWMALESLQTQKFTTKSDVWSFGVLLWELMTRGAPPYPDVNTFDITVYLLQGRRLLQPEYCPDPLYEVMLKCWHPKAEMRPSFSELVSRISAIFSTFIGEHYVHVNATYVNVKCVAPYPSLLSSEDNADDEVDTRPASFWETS

With `Cc1cc(Oc2ccc(NC(=O)c3sc(-c4ccccn4)nc3C)cc2)c2nncn2n1` [12e, 4-Methyl-N-(4-((6-methyl-[1,2,4]triazolo[4,3-b]pyridazin-8-yl)oxy)phenyl)-2-(pyridin-2-yl)thiazole-5-carboxamide], on c-Met kinase, the IC50 was 0.09 to 0.21 µM. Moreover, the G0/G1 phase population turned out to be 60.25% in the experiment with A549 cells [1] (A549, 3.75 μM); 66.32% in the experiment on A549 cells [1] (A549, 7.50 μM); 76.84% in the experiment on A549 cells [1] (A549, 15.00 μM). Further, the “induction of apoptosis, AO staining” value in the experiment on A549 cells [2] is recorded as “significant effect on inducing apoptosis”. The total apoptosis rate in the experiment on A549 cells [3] (A549, 3.75 μM) came to 13.73%; in the experiment with A549 cells [3] (A549, 7.50 μM) it was 24.87%; with A549 cells [3] (A549, 15.00 μM), 35.87%.
As to `Cc1cc(Oc2ccc(NC(=O)c3cnn(-c4ccc(Cl)cc4)c3C(F)(F)F)cc2F)c2nncn2n1` [13b, 1-(4-Chlorophenyl)-N-(3-fluoro-4-((6-methyl-[1,2,4]triazolo[4,3-b]pyridazin-8-yl)oxy)phenyl)-5-(trifluoromethyl)-1H-pyrazole-4-carboxamide], the IC50 at c-Met kinase was in the range of 0.09 to 0.21 µM.
